According to US20220289794A1, “SYNTHETIC ANTIMICROBIAL PEPTIDES” (priority 2019, published 2022):

Test system: Klebsiella pneumoniae ATCC 13883
Assay: not given
Settings: Table 16, Gram-negative panel

“c[arg-Arg-arg-Arg-dip-Trp-dip] [IFX-096]” and “c[arg-arg-Arg-Arg-NaI-trp-NaI] [IFX-140]” are the same in MIC K. pneumonia (ATCC 13883): 50 µg/mL for the first, 50 µg/mL for the second.

“c[arg-arg-Arg-Arg-naI-Trp-naI] [IFX-136]” and “c[arg-arg-Arg-Arg-naI-trp-naI] [IFX-138]” are the same in MIC K. pneumonia (ATCC 13883): 50 µg/mL for the first, 50 µg/mL for the second.

Test system: Enterococcus faecalis ATCC 29212
Assay: not given
Settings: E. faecalis ATCC 29212

Compared with “c[arg-Arg-arg-Arg-dip-Trp-dip] [IFX-096]”, “c[arg-arg-Arg-Arg-NaI-trp-NaI] [IFX-140]” is lower in “Broad-spectrum activity E. faecalis (ATCC 29212)” value: 12.5 for the first, 6.2 for the second.

“c[arg-arg-Arg-Arg-naI-Trp-naI] [IFX-136]” and “c[arg-arg-Arg-Arg-naI-trp-naI] [IFX-138]” are the same in “Broad-spectrum activity E. faecalis (ATCC 29212)” value: 6.2 for the first, 6.2 for the second.

Test system: Enterococcus faecium ATCC 27270
Assay: not given
Settings: E. faecium ATCC 27270

“c[arg-Arg-arg-Arg-dip-Trp-dip] [IFX-096]” and “c[arg-arg-Arg-Arg-NaI-trp-NaI] [IFX-140]” are the same in “Broad-spectrum activity E. faecium (ATCC 27270)” value: 3.1 for the first, 3.1 for the second.

“c[arg-arg-Arg-Arg-naI-Trp-naI] [IFX-136]” and “c[arg-arg-Arg-Arg-naI-trp-naI] [IFX-138]” are the same in “Broad-spectrum activity E. faecium (ATCC 27270)” value: 3.1 for the first, 3.1 for the second.

Test system: Methicillin-resistant Staphylococcus aureus MRSA (ATCC BAA-1556)
Assay: not given
Settings: MRSA ATCC BAA-1556

“c[arg-Arg-arg-Arg-dip-Trp-dip] [IFX-096]” and “c[arg-arg-Arg-Arg-NaI-trp-NaI] [IFX-140]” are the same in “MIC MRSA ATCC BAA-1556” value: 3.1 µg/mL for the first, 3.1 µg/mL for the second.

“c[arg-arg-Arg-Arg-naI-Trp-naI] [IFX-136]” and “c[arg-arg-Arg-Arg-naI-trp-naI] [IFX-138]” are the same in “MIC MRSA ATCC BAA-1556” value: 3.1 µg/mL for the first, 3.1 µg/mL for the second.

Test system: B. cereus (ATCC-13061)
Assay: Broad-spectrum activity against Gram-Positive bacteria (MIC)
Assay type: cell-based
Design: unit not given here
Settings: not given

First: c[arg-Arg-arg-Arg-dip-Trp-dip] [IFX-096]
Second: c[arg-arg-Arg-Arg-NaI-trp-NaI] [IFX-140]
The “Broad-spectrum activity B. cereus (ATCC-13061)” value of the first is higher: 6.2 for the first, 3.1 for the second.

Compared with “c[arg-arg-Arg-Arg-naI-Trp-naI] [IFX-136]”, “c[arg-arg-Arg-Arg-naI-trp-naI] [IFX-138]” is higher in “Broad-spectrum activity B. cereus (ATCC-13061)” value: 3.1 for the first, 6.2 for the second.

Test system: E. coli (ATCC BAA-2452)
Assay: Broad-spectrum activity against Gram-Negative bacteria (MIC)
Assay type: cell-based
Settings: Table 16, Gram-negative panel

First: c[arg-Arg-arg-Arg-dip-Trp-dip] [IFX-096]
Second: c[arg-arg-Arg-Arg-NaI-trp-NaI] [IFX-140]
The MIC E. coli (ATCC BAA-2452) of the first is 2-fold lower: 12.5 µg/mL for the first, 25 µg/mL for the second.

“c[arg-arg-Arg-Arg-naI-Trp-naI] [IFX-136]” and “c[arg-arg-Arg-Arg-naI-trp-naI] [IFX-138]” are the same in MIC E. coli (ATCC BAA-2452): 12.5 µg/mL for the first, 12.5 µg/mL for the second.

Test system: Enterococcus faecalis ATCC 51575
Assay: not given
Settings: E. faecalis ATCC 51575

First: c[arg-Arg-arg-Arg-dip-Trp-dip] [IFX-096]
Second: c[arg-arg-Arg-Arg-NaI-trp-NaI] [IFX-140]
The “Broad-spectrum activity E. faecalis (ATCC 51575)” value of the first is higher: 12.5 for the first, 6.2 for the second.

“c[arg-arg-Arg-Arg-naI-Trp-naI] [IFX-136]” and “c[arg-arg-Arg-Arg-naI-trp-naI] [IFX-138]” are the same in “Broad-spectrum activity E. faecalis (ATCC 51575)” value: 6.2 for the first, 6.2 for the second.

Test system: Streptococcus pneumoniae ATCC 51938
Assay: not given
Settings: S. pneumoniae ATCC 51938

Going from “c[arg-Arg-arg-Arg-dip-Trp-dip] [IFX-096]” to “c[arg-arg-Arg-Arg-NaI-trp-NaI] [IFX-140]”, the “Broad-spectrum activity S. pneumoniae (ATCC 51938)” value falls from 25 to 12.5.

Compared with “c[arg-arg-Arg-Arg-naI-Trp-naI] [IFX-136]”, “c[arg-arg-Arg-Arg-naI-trp-naI] [IFX-138]” is higher in “Broad-spectrum activity S. pneumoniae (ATCC 51938)” value: 12.5 for the first, 25 for the second.

Test system: Enterococcus faecium ATCC 700221
Assay: not given
Settings: E. faecium ATCC 700221

“c[arg-Arg-arg-Arg-dip-Trp-dip] [IFX-096]” and “c[arg-arg-Arg-Arg-NaI-trp-NaI] [IFX-140]” are the same in “Broad-spectrum activity E. faecium (ATCC 700221)” value: 6.2 for the first, 6.2 for the second.

Compared with “c[arg-arg-Arg-Arg-naI-Trp-naI] [IFX-136]”, “c[arg-arg-Arg-Arg-naI-trp-naI] [IFX-138]” is higher in “Broad-spectrum activity E. faecium (ATCC 700221)” value: 3.1 for the first, 6.2 for the second.

Test system: Pseudomonas aeruginosa (ATCC 27883)
Assay: not given
Settings: P. aeruginosa ATCC 27883

Compared with “c[arg-Arg-arg-Arg-dip-Trp-dip] [IFX-096]”, “c[arg-arg-Arg-Arg-NaI-trp-NaI] [IFX-140]” is 5.2-fold higher in “MIC P. aeruginosa ATCC 27883” value: 6.2 µg/mL for the first, 32 µg/mL for the second.

“c[arg-arg-Arg-Arg-naI-Trp-naI] [IFX-136]” and “c[arg-arg-Arg-Arg-naI-trp-naI] [IFX-138]” are the same in “MIC P. aeruginosa ATCC 27883” value: 32 µg/mL for the first, 32 µg/mL for the second.

Test system: B. subtilis (ATCC-6633)
Assay: Broad-spectrum activity against Gram-Positive bacteria (MIC)
Assay type: cell-based
Design: unit not given here
Settings: not given

First: c[arg-Arg-arg-Arg-dip-Trp-dip] [IFX-096]
Second: c[arg-arg-Arg-Arg-NaI-trp-NaI] [IFX-140]
The “Broad-spectrum activity B. subtilis (ATCC-6633)” value of the first is higher: 3.1 for the first, 1.5 for the second.

Compared with “c[arg-arg-Arg-Arg-naI-Trp-naI] [IFX-136]”, “c[arg-arg-Arg-Arg-naI-trp-naI] [IFX-138]” is higher in “Broad-spectrum activity B. subtilis (ATCC-6633)” value: 1.5 for the first, 3.1 for the second.

Test system: Escherichia coli (ATCC 25922)
Assay: not given
Settings: E. coli ATCC 25922

Going from “c[arg-Arg-arg-Arg-dip-Trp-dip] [IFX-096]” to “c[arg-arg-Arg-Arg-NaI-trp-NaI] [IFX-140]”, the “MIC E. coli ATCC 25922” value rises from 6.2 µg/mL to 32 µg/mL (5.2-fold).

“c[arg-arg-Arg-Arg-naI-Trp-naI] [IFX-136]” and “c[arg-arg-Arg-Arg-naI-trp-naI] [IFX-138]” are the same in “MIC E. coli ATCC 25922” value: 16 µg/mL for the first, 16 µg/mL for the second.

Test system: S. aureus ATCC 29213
Assay: not given
Settings: S. aureus ATCC 29213

“c[arg-Arg-arg-Arg-dip-Trp-dip] [IFX-096]” and “c[arg-arg-Arg-Arg-NaI-trp-NaI] [IFX-140]” are the same in “MIC S. aureus ATCC 29213” value: 3.1 µg/mL for the first, 3.1 µg/mL for the second.

“c[arg-arg-Arg-Arg-naI-Trp-naI] [IFX-136]” and “c[arg-arg-Arg-Arg-naI-trp-naI] [IFX-138]” are the same in “MIC S. aureus ATCC 29213” value: 1.5 µg/mL for the first, 1.5 µg/mL for the second.

Test system: Klebsiella pneumoniae (ATCC BAA-1705)
Assay: not given
Settings: Table 16, Gram-negative panel

First: c[arg-Arg-arg-Arg-dip-Trp-dip] [IFX-096]
Second: c[arg-arg-Arg-Arg-NaI-trp-NaI] [IFX-140]
The MIC K. pneumonia (ATCC BAA-1705) of the first is lower: 25 µg/mL for the first, over 50 µg/mL for the second.

Going from “c[arg-arg-Arg-Arg-naI-Trp-naI] [IFX-136]” to “c[arg-arg-Arg-Arg-naI-trp-naI] [IFX-138]”, the MIC K. pneumonia (ATCC BAA-1705) rises from 25 µg/mL to 50 µg/mL (2-fold).

Test system: P. aeruginosa (ATCC 10145)
Assay: Broad-spectrum activity against Gram-Negative bacteria (MIC)
Assay type: cell-based
Settings: Table 16, Gram-negative panel

Compared with “c[arg-Arg-arg-Arg-dip-Trp-dip] [IFX-096]”, “c[arg-arg-Arg-Arg-NaI-trp-NaI] [IFX-140]” is 2-fold lower in MIC P. aeruginosa (ATCC 10145): 50 µg/mL for the first, 25 µg/mL for the second.

“c[arg-arg-Arg-Arg-naI-Trp-naI] [IFX-136]” and “c[arg-arg-Arg-Arg-naI-trp-naI] [IFX-138]” are the same in MIC P. aeruginosa (ATCC 10145): 50 µg/mL for the first, 50 µg/mL for the second.

Test system: Streptococcus pneumoniae ATCC 49619
Assay: not given
Settings: S. pneumoniae ATCC 49619

“c[arg-Arg-arg-Arg-dip-Trp-dip] [IFX-096]” and “c[arg-arg-Arg-Arg-NaI-trp-NaI] [IFX-140]” are the same in “Broad-spectrum activity S. pneumoniae (ATCC 49619)” value: 25 for the first, 25 for the second.

First: c[arg-arg-Arg-Arg-naI-Trp-naI] [IFX-136]
Second: c[arg-arg-Arg-Arg-naI-trp-naI] [IFX-138]
The “Broad-spectrum activity S. pneumoniae (ATCC 49619)” value of the first is lower: 25 for the first, 50 for the second.

Test system: P. aeruginosa (ATCC BAA-1744)
Assay: Broad-spectrum activity against Gram-Negative bacteria (MIC)
Assay type: cell-based
Settings: Table 16, Gram-negative panel

First: c[arg-Arg-arg-Arg-dip-Trp-dip] [IFX-096]
Second: c[arg-arg-Arg-Arg-NaI-trp-NaI] [IFX-140]
The MIC P. aeruginosa (ATCC BAA-1744) of the first is 2-fold higher: 50 µg/mL for the first, 25 µg/mL for the second.

Compared with “c[arg-arg-Arg-Arg-naI-Trp-naI] [IFX-136]”, “c[arg-arg-Arg-Arg-naI-trp-naI] [IFX-138]” is 2-fold higher in MIC P. aeruginosa (ATCC BAA-1744): 25 µg/mL for the first, 50 µg/mL for the second.

Test system: A. baumannii (ATCC BAA-1605)
Assay: as above
Assay type: cell-based
Settings: Table 16, Gram-negative panel

First: c[arg-Arg-arg-Arg-dip-Trp-dip] [IFX-096]
Second: c[arg-arg-Arg-Arg-NaI-trp-NaI] [IFX-140]
The MIC A. baumannii (ATCC BAA-1605) of the first is 2-fold higher: 25 µg/mL for the first, 12.5 µg/mL for the second.

First: c[arg-arg-Arg-Arg-naI-Trp-naI] [IFX-136]
Second: c[arg-arg-Arg-Arg-naI-trp-naI] [IFX-138]
The MIC A. baumannii (ATCC BAA-1605) of the first is 2-fold lower: 12.5 µg/mL for the first, 25 µg/mL for the second.
